Measured values published in ChEMBL document CHEMBL1150319, “Activity-based probe for specific photoaffinity labeling gamma-aminobutyric acid B (GABAB) receptors on living cells: design, synthesis, and biological evaluation” (J Med Chem, 2008).
Calls of active or inactive are those of the source. The rule behind the calls is not given here.

Tests used:
[1] = test system: HEK293; experiment: Antagonist activity at GABA B receptor expressed in HEK293 cells assessed as inhibition of GABA-induced IP production at 10 uM after 15 mins; format: functional, cell-based
[2] = test system: CHO; experiment: Displacement of CGP-64213 from GABA B1-ASA receptor mutant expressed in CHO cells at 1 uM; format: cell-based
[3] = test system: CHO; experiment: Binding affinity at intracellular GABA B receptor expressed in CHO cells at 1uM before 15 mins of UV irradiation by […] microscopy based photoaffinity labeling; format: cell-based
[4] = test system: CHO; experiment: Binding affinity at cell surface GABA B receptor expressed in CHO cells at 1 uM before 15 mins of UV irradiation by […] microscopy based photoaffinity labeling
[5] = test system: CHO; experiment: Binding affinity at intracellular DsRed2-tagged GABA B receptor expressed in CHO cells at 1 uM by fluorescence confocal microscopy based photoaffinity labeling; format: cell-based
[6] = test system: CHO; experiment: Increase in labeling efficiency in CHO cells expressing GABA B1-ASA receptor mutant after UV irradiation; format: cell-based
[7] = Antagonist activity at GABA B receptor expressed in HEK293 cells assessed as inhibition of GABA-induced IP production after 15 mins; format: functional, cell-based; conditions: HEK293, 0.25 h

Row | IC50 [7] [nM] | Structure (SMILES) | Activity [1] | Activity [2] | Activity [3] | Activity [4] | Activity [5] | Activity [6]
1 | – | CC1=CC(C)=[N+]2C1=C(CCCC(=O)NCCOCCOCCOc1cc(C3(C(F)(F)F)N=N3)ccc1CO)c1c(C)cc(C)n1[B-]2(F)F | inactive | inactive | – | – | – | –
2 | 1030 | CC1=CC(C)=[N+]2C1=C(CCCC(=O)NCc1cn(CC(=O)NCCOCCOCCOc3cc(C4(C(F)(F)F)N=N4)ccc3C(=O)NCCCCCP(=O)(O)C[C@@H](O)CN[C@H](C)c3cccc(C(=O)O)c3)nn1)c1c(C)cc(C)n1[B-]2(F)F | – | Active | inactive | Active | inactive | Active
